Data as given in patent publication US9012642B2, “Pyrrolopyridinone compounds and methods for treating HIV” (ViiV Healthcare UK Limited, priority 2011, dated 2015).
Counter-ions that a name gives are not always drawn. Like-named read-outs stand apart in the source and are kept apart here.

Tested on: HIV
Assay: HIV MT4 Assay (antiviral HIV activity in MT-4 cells)
Type: cell-based
Method: Antiviral HIV activity and cytotoxicity values for compounds of the invention from Table 1 were measured in parallel in the HTLV-1 transformed cell line MT-4 based on the method previously described (Hazen et al., 2007, In vitro antiviral activity of the novel, tyrosyl-based human immunodeficiency virus (HIV) type 1 protease inhibitor brecanavir (GW640385) in combination with other antiretrovirals and against a panel of protease inhibitor-resistant HIV (Hazen et al., “In vitro antiviral activity of the novel, tyrosyl-based human immunodeficiency virus (HIV) type 1 protease inhibitor brecanavir (GW640385) in combination with other antiretrovirals and against a panel of protease inhibitor-resistant HIV”, Antimicrob. Agents Chemother. 2007, 51: 3147-3154; and Pauwels et al., “Sensitive and rapid assay on MT-4 cells for the detection of antiviral compounds against the AIDS virus”, (J. of Virological Methods 1987, 16: 171-185).
Luciferase activity was measured 96 hours later by adding a cell titer glo (Promega, Madison, Wis.). Percent inhibition of cell protection data was plotted relative to no compound control. Under the same condition, cytotoxicity of the compounds was determined using cell titer Glo™ (Promega, Madison, Wis.). IC50s were determined from a 10 point dose response curve using 3-4-fold serial dilution for each compound, which spans a concentration range >1000 fold.
These values are plotted against the molar compound concentrations using the standard four parameter logistic equation: y=((Vmax*x^n)/(K^n+x^n))+Y^2
Y^2=minimum y n=slope factor
Vmax=maximum y x=compound concentration [M]

[1] = Human immunodeficiency virus 1, MT4, HTLV-1 transformed cell line MT-4, luciferase activity measured 96 hours later, Table 3, read-out: HIV MT4 Assay IC50
[2] = MT4, 96 h, read-out: MT4 (IC50)

SMILES | IC50 [1] | IC50 [2]
Cn1c([C@H](OC(C)(C)C)C(=O)O)c(-c2ccc(Cl)cc2)c2ccn(Cc3ccc(F)c(F)c3)c2c1=O [Example 6, (S)-2-(tert-butoxy)-2-(4-(4-chlorophenyl)-1-(3,4-difluorobenzyl)-6-methyl-7-oxo-6,7-dihydro-1H-pyrrolo[2,3-c]pyridin-5-yl)acetic acid] | 140 nM | 140 nM
Cc1ccc(-c2c(C(OC(C)(C)C)C(=O)O)n(C)c(=O)c3c2ccn3Cc2ccc(S(C)(=O)=O)cc2)cc1 (stereo not drawn) [Example 27, 2-(tert-butoxy)-2-(6-methyl-1-(4-(methylsulfonyl)benzyl)-7-oxo-4-(p-tolyl)-6,7-dihydro-1H-pyrrolo[2,3-c]pyridin-5-yl)acetic acid] | 3850 nM | 3850 nM
Cn1c(C(OC(C)(C)C)C(=O)O)c(-c2ccc(Cl)cc2)c2ccn(Cc3ccc(F)cc3)c2c1=O (stereo not drawn) [Example 2, 2-(tert-butoxy)-2-(4-(4-chlorophenyl)-1-(4-fluorobenzyl)-6-methyl-7-oxo-6,7-dihydro-1H-pyrrolo[2,3-c]pyridin-5-yl)acetic acid] | 160 nM | 160 nM
Cn1c(C(OC(C)(C)C)C(=O)O)c(-c2ccc(Cl)cc2)c2ccn(S(=O)(=O)c3ccc(F)cc3)c2c1=O (stereo not drawn) [Example 16, 2-(tert-butoxy)-2-(4-(4-chlorophenyl)-1-((4-fluorophenyl)sulfonyl)-6-methyl-7-oxo-6,7-dihydro-1H-pyrrolo[2,3-c]pyridin-5-yl)acetic acid] | 1800 nM | 1800 nM
Cc1c(-c2c(C(OC(C)(C)C)C(=O)O)n(C)c(=O)c3sc4c(c23)CCCC4)ccc2c1CCCO2 (stereo not drawn) [Example 55, tert-Butoxy-[2-methyl-4-(5-methyl-chroman-6-yl)-1-oxo-1,2,5,6,7,8-hexahydro-benzo[4,5]thieno[2,3-c]pyridin-3-yl]-acetic acid] | 130 nM | 130 nM
Cc1ccc(-c2c(C(OC(C)(C)C)C(=O)O)n(C)c(=O)c3c2ccn3CC(=O)Nc2ccc(F)cc2)cc1 (stereo not drawn) [Example 35, 2-(tert-butoxy)-2-(1-(2-((4-fluorophenyl)amino)-2-oxoethyl)-6-methyl-7-oxo-4-(p-tolyl)-6,7-dihydro-1H-pyrrolo[2,3-c]pyridin-5-yl)acetic acid] | 1000 nM | 1000 nM
COc1ccc(-c2c(C(OC(C)(C)C)C(=O)O)n(C)c(=O)c3c2ccn3Cc2ccc(F)cc2)cc1 (stereo not drawn) [Example 36, 2-(tert-butoxy)-2-(1-(4-fluorobenzyl)-4-(4-methoxyphenyl)-6-methyl-7-oxo-6,7-dihydro-1H-pyrrolo[2,3-c]pyridin-5-yl)acetic acid] | 60 nM | 60 nM
COCCn1ccc2c(-c3ccc4c(c3C)CCCO4)c(C(OC(C)(C)C)C(=O)O)n(C)c(=O)c21 (stereo not drawn) [Example 43, 2-(tert-butoxy)-2-(1-(2-methoxyethyl)-6-methyl-4-(5-methylchroman-6-yl)-7-oxo-6,7-dihydro-1H-pyrrolo[2,3-c]pyridin-5-yl)acetic acid] | 1100 nM | 1100 nM
CC(c1ccccc1)n1ccc2c(-c3ccc(Cl)cc3)c(C(OC(C)(C)C)C(=O)O)n(C)c(=O)c21 (stereo not drawn) [Example 13, 2-(tert-butoxy)-2-(4-(4-chlorophenyl)-6-methyl-7-oxo-1-(1-phenylethyl)-6,7-dihydro-1H-pyrrolo[2,3-c]pyridin-5-yl)acetic acid] | 400 nM | 400 nM
COCCn1ccc2c(-c3ccc(Cl)cc3)c(C(OC(C)(C)C)C(=O)O)n(C)c(=O)c21 (stereo not drawn) [Example 4, 2-(tert-butoxy)-2-(4-(4-chlorophenyl)-1-(2-methoxyethyl)-6-methyl-7-oxo-6,7-dihydro-1H-pyrrolo[2,3-c]pyridin-5-yl)acetic acid] | 1550 nM | 1550 nM
Cc1c(-c2c(C(OC(C)(C)C)C(=O)O)n(C)c(=O)c3c2ccn3Cc2ccc(C(F)(F)F)cc2)ccc2c1CCCO2 (stereo not drawn) [Example 46, 2-(tert-butoxy)-2-(6-methyl-4-(5-methylchroman-6-yl)-7-oxo-1-(4-(trifluoromethyl)benzyl)-6,7-dihydro-1H-pyrrolo[2,3-c]pyridin-5-yl)acetic acid] | 90 nM | 90 nM
Cn1c(C(OC(C)(C)C)C(=O)O)c(-c2ccc(Cl)cc2)c2ccn(CCN3CCCCC3)c2c1=O (stereo not drawn) [Example 7, 2-(tert-butoxy)-2-(4-(4-chlorophenyl)-6-methyl-7-oxo-1-(2-(piperidin-1-yl)ethyl)-6,7-dihydro-1H-pyrrolo[2,3-c]pyridin-5-yl)acetic acid] | 1000 nM | 1000 nM
Cc1c(-c2c(C(OC(C)(C)C)C(=O)O)n(C)c(=O)c3c2ccn3CC2CCCCC2)ccc2c1CCCO2 (stereo not drawn) [Example 51, 2-(tert-butoxy)-2-(1-(cyclohexylmethyl)-6-methyl-4-(5-methylchroman-6-yl)-7-oxo-6,7-dihydro-1H-pyrrolo[2,3-c]pyridin-5-yl)acetic acid] | 100 nM | 100 nM
Cc1ccc(-c2c(C(OC(C)(C)C)C(=O)O)n(C)c(=O)c3c2ccn3CCc2ccc(F)cc2)cc1 (stereo not drawn) [Example 26, 2-(tert-butoxy)-2-(1-(4-fluorophenethyl)-6-methyl-7-oxo-4-(p-tolyl)-6,7-dihydro-1H-pyrrolo[2,3-c]pyridin-5-yl)acetic acid] | 2250 nM | 2250 nM
Cc1ccc(-c2c(C(OC(C)(C)C)C(=O)O)n(C)c(=O)c3c2c2c(n3Cc3ccc(F)cc3)CCOC2)cc1 (stereo not drawn) [Example 58, 2-(tert-butoxy)-2-(5-(4-fluorobenzyl)-7-methyl-6-oxo-9-(p-tolyl)-1,3,4,5,6,7-hexahydropyrano[3′,4′:4,5]pyrrolo[2,3-c]pyridin-8-yl)acetic acid] | 750 nM | 750 nM
Cc1ccc(-c2c(C(OC(C)(C)C)C(=O)O)n(C)c(=O)c3c2ccn3Cc2ccc(C(N)=O)cc2)cc1 (stereo not drawn) [Example 22, 2-(tert-butoxy)-2-(1-(4-carbamoylbenzyl)-6-methyl-7-oxo-4-(p-tolyl)-6,7-dihydro-1H-pyrrolo[2,3-c]pyridin-5-yl)acetic acid] | 8700 nM | 8700 nM
Cc1c(-c2c(C(OC(C)(C)C)C(=O)O)n(C)c(=O)c3c2ccn3Cc2ccccn2)ccc2c1CCCO2 (stereo not drawn) [Example 42, 2-(tert-butoxy)-2-(6-methyl-4-(5-methylchroman-6-yl)-7-oxo-1-(pyridin-2-ylmethyl)-6,7-dihydro-1H-pyrrolo[2,3-c]pyridin-5-yl)acetic acid] | 540 nM | 540 nM
Cc1ccc(-c2c(C(OC(C)(C)C)C(=O)O)n(C)c(=O)c3c2ccn3Cc2cccs2)cc1 (stereo not drawn) [Example 25, 2-(tert-butoxy)-2-(6-methyl-7-oxo-1-(thiophen-2-ylmethyl)-4-(p-tolyl)-6,7-dihydro-1H-pyrrolo[2,3-c]pyridin-5-yl)acetic acid] | 220 nM | 220 nM
CC(C)Cn1ccc2c(-c3ccc(Cl)cc3)c(C(OC(C)(C)C)C(=O)O)n(C)c(=O)c21 (stereo not drawn) [Example 5, 2-(tert-butoxy)-2-(4-(4-chlorophenyl)-1-isobutyl-6-methyl-7-oxo-6,7-dihydro-1H-pyrrolo[2,3-c]pyridin-5-yl)acetic acid] | 5000 nM | 5000 nM
Cc1cn(Cc2ccccc2)c2c(=O)n(C)c(C(OC(C)(C)C)C(=O)O)c(-c3ccc(Cl)cc3)c12 (stereo not drawn) [Example 15, 2-(1-benzyl-4-(4-chlorophenyl)-3,6-dimethyl-7-oxo-6,7-dihydro-1H-pyrrolo[2,3-c]pyridin-5-yl)-2-(tert-butoxy)acetic acid] | 1620 nM | 1620 nM
Cc1c(-c2c(C(OC(C)(C)C)C(=O)O)n(C)c(=O)c3c2ccn3Cc2cscn2)ccc2c1CCCO2 (stereo not drawn) [Example 50, 2-(tert-butoxy)-2-(6-methyl-4-(5-methylchroman-6-yl)-7-oxo-1-(thiazol-4-ylmethyl)-6,7-dihydro-1H-pyrrolo[2,3-c]pyridin-5-yl)acetic acid, Trifluoroacetic acid salt] | 230 nM | 230 nM
Cn1c(C(OC(C)(C)C)C(=O)O)c(-c2ccc(Cl)cc2)c2ccn(Cc3cn(CCO)nn3)c2c1=O (stereo not drawn) [Example 18, 2-(tert-butoxy)-2-(4-(4-chlorophenyl)-1-((1-(2-hydroxyethyl)-1H-1,2,3-triazol-4-yl)methyl)-6-methyl-7-oxo-6,7-dihydro-1H-pyrrolo[2,3-c]pyridin-5-yl)acetic acid] | 50000 nM | 50000 nM
Cc1ccc(-c2c(C(OC(C)(C)C)C(=O)O)n(C)c(=O)c3c2c2c(n3C)CCCC2)cc1 (stereo not drawn) [Example 60, 2-(tert-butoxy)-2-(2,9-dimethyl-1-oxo-4-(p-tolyl)-2,5,6,7,8,9-hexahydro-1H-pyrido[3,4-b]indol-3-yl)acetic acid] | 50 nM | 50 nM
Cc1ccc(NC(=O)Cn2ccc3c(-c4ccc(Cl)cc4)c(C(OC(C)(C)C)C(=O)O)n(C)c(=O)c32)c(O)c1 (stereo not drawn) [Example 12, 2-(tert-butoxy)-2-(4-(4-chlorophenyl)-1-(2-((2-hydroxy-4-methylphenyl)amino)-2-oxoethyl)-6-methyl-7-oxo-6,7-dihydro-1H-pyrrolo[2,3-c]pyridin-5-yl)acetic acid] | 3250 nM | 3250 nM
